# According to publication PMC7265341, “Quantifying CDK inhibitor selectivity in live cells” (Nature Communications, 2020):
# Values joined by “and” are separate entries in the source; they are usually repeats but may differ in a detail not shown here. Equal entries are not always repeated. Where two headings read alike, the source gives them in different places.
# Legend:
# CDK1/Cyclin E1 = CDK1/Cyclin E1 (Homo sapiens, UniProt P06493); experiment: NanoBRET live-cell target engagement, CDK1-NanoLuc/Cyclin E1 in HEK-293; assay type: binding; conditions: CDK1/E1; for IC50: read-out: IC50
# CDK2/Cyclin E1 = CDK2/Cyclin E1 (Homo sapiens, UniProt P24941); experiment: NanoBRET live-cell target engagement, CDK2-NanoLuc/Cyclin E1 in HEK-293; assay type: binding; conditions: 10 µM
# CDK3/Cyclin E1 = CDK3/Cyclin E1 (Homo sapiens, UniProt Q00526); experiment: NanoBRET live-cell target engagement, CDK3-NanoLuc/Cyclin E1 in HEK-293; assay type: binding
# CDK4/Cyclin D1 = CDK4/Cyclin D1 (Homo sapiens, UniProt P11802); experiment: NanoBRET live-cell target engagement, NanoLuc-CDK4/Cyclin D1 in HEK-293; assay type: binding; conditions: CDK4/D1; for IC50: read-out: IC50
# CDK5/CDK5R1 = CDK5/CDK5R1 (Homo sapiens, UniProt Q00535); experiment: NanoBRET live-cell target engagement, CDK5-NanoLuc/CDK5R1 in HEK-293; assay type: binding; conditions: CDK5/CDK5R1; for IC50: read-out: IC50
# CDK7 = CDK7 (Homo sapiens, UniProt P50613); experiment: NanoBRET live-cell target engagement, NanoLuc-CDK7 in HEK-293; assay type: binding; conditions: CDK7; for IC50: read-out: IC50
# CDK8/Cyclin C = CDK8/Cyclin C (Homo sapiens, UniProt P49336); experiment: NanoBRET live-cell target engagement, NanoLuc-CDK8/Cyclin C in HEK-293; assay type: binding; conditions: CDK8/C
# CDK11A/Cyclin L2 = biological target: T1, CDK11A/Cyclin L2 (Homo sapiens, UniProt Q9UQ88); experiment: NanoBRET live-cell target engagement, CDK11A-NanoLuc/Cyclin L2 in HEK-293; assay type: binding; conditions: CDK11a/L2; for IC50: read-out: IC50
# T1 sequence (Q9UQ88 1-783): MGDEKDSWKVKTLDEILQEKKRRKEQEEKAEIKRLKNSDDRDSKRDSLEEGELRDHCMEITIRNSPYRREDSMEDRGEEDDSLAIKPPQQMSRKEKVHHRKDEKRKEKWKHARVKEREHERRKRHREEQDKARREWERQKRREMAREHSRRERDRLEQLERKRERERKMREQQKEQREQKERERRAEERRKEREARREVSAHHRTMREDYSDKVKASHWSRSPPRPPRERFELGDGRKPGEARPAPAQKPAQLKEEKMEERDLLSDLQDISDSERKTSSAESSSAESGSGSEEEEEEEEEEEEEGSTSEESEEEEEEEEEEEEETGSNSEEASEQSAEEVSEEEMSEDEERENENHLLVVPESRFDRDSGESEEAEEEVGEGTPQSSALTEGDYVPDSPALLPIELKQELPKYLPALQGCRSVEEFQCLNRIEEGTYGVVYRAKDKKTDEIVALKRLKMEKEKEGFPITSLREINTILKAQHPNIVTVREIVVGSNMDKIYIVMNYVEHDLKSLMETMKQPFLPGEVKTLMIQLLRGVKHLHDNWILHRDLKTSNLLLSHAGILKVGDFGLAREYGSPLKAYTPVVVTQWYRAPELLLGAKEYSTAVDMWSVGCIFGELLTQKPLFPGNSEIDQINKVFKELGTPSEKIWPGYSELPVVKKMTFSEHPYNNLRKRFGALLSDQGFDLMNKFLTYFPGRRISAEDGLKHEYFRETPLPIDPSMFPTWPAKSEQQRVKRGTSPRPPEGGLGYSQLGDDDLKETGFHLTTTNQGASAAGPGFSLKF
# CDK11B/Cyclin L2 = CDK11B/Cyclin L2 (Homo sapiens, UniProt P21127); experiment: NanoBRET live-cell target engagement, CDK11B-NanoLuc/Cyclin L2 in HEK-293; assay type: binding; conditions: CDK11b/L2; for IC50: read-out: IC50
# CDK12/Cyclin K = CDK12/Cyclin K (Homo sapiens, UniProt Q9NYV4); experiment: NanoBRET live-cell target engagement, CDK12-NanoLuc/Cyclin K in HEK-293; assay type: binding; conditions: CDK12/K
# CDK13/Cyclin K = CDK13/Cyclin K (Homo sapiens, UniProt Q14004); experiment: NanoBRET live-cell target engagement, CDK13-NanoLuc/Cyclin K in HEK-293; assay type: binding; conditions: CDK13/K
# CDK14/Cyclin Y = CDK14/Cyclin Y (Homo sapiens, UniProt O94921); experiment: NanoBRET live-cell target engagement, CDK14-NanoLuc/Cyclin Y in HEK-293; assay type: binding; conditions: CDK14/Y; for IC50: read-out: IC50
# CDK15/Cyclin Y = CDK15/Cyclin Y (Homo sapiens, UniProt Q96Q40); experiment: NanoBRET live-cell target engagement, NanoLuc-CDK15/Cyclin Y in HEK-293; assay type: binding; conditions: CDK15/Y; for IC50: read-out: IC50
# CDK16/Cyclin Y = CDK16/Cyclin Y (Homo sapiens, UniProt Q00536); experiment: NanoBRET live-cell target engagement, CDK16-NanoLuc/Cyclin Y in HEK-293; assay type: binding; conditions: CDK16/Y; for IC50: read-out: IC50
# CDK17/Cyclin Y = CDK17/Cyclin Y (Homo sapiens, UniProt Q00537); experiment: NanoBRET live-cell target engagement, CDK17-NanoLuc/Cyclin Y in HEK-293; assay type: binding; conditions: CDK17/Y; for IC50: read-out: IC50
# CDK20/Cyclin H = CDK20/Cyclin H (Homo sapiens, UniProt Q8IZL9); experiment: NanoBRET live-cell target engagement, NanoLuc-CDK20/Cyclin H in HEK-293; assay type: binding; conditions: CDK20/H
# CDK19/Cyclin C = CDK19/Cyclin C (Homo sapiens, UniProt Q9BWU1); experiment: NanoBRET live-cell target engagement, NanoLuc-CDK19/Cyclin C in HEK-293; conditions: CDK19/C
# CDK10/Cyclin L2 = CDK10/Cyclin L2 (Homo sapiens, UniProt Q15131); experiment: NanoBRET live-cell target engagement, CDK10-NanoLuc/Cyclin L2 in HEK-293; conditions: CDK10/L2
# Chain of CDK4/Cyclin D1 (P11802 whole entry): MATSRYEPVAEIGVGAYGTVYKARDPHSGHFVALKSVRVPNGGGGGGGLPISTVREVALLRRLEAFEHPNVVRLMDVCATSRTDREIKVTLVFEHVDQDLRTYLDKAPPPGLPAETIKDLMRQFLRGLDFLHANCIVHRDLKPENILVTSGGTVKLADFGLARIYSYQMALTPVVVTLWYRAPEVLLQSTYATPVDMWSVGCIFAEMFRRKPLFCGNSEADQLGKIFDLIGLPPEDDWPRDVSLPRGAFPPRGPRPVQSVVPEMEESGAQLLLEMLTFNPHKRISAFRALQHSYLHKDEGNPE
# Chain of CDK4/Cyclin D1 (P24385 whole entry partner): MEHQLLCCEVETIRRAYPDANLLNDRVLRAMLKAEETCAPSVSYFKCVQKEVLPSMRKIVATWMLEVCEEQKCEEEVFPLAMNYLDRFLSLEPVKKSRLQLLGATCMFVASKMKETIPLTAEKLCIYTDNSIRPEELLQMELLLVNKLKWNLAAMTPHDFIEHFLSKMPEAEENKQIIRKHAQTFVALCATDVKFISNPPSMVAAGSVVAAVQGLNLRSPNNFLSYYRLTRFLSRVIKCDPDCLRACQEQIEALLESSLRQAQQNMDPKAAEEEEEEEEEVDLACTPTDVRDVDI
# Chain of CDK1/Cyclin E1 (P06493 whole entry): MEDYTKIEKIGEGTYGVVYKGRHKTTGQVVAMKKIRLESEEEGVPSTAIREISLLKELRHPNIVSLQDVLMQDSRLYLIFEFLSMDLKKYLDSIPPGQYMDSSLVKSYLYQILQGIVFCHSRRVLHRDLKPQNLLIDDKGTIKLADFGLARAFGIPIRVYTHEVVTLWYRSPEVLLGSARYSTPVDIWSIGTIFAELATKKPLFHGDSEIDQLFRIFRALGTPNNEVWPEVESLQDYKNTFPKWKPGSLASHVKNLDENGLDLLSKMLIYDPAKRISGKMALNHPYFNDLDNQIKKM
# Chain of CDK1/Cyclin E1 (P24864 whole entry partner): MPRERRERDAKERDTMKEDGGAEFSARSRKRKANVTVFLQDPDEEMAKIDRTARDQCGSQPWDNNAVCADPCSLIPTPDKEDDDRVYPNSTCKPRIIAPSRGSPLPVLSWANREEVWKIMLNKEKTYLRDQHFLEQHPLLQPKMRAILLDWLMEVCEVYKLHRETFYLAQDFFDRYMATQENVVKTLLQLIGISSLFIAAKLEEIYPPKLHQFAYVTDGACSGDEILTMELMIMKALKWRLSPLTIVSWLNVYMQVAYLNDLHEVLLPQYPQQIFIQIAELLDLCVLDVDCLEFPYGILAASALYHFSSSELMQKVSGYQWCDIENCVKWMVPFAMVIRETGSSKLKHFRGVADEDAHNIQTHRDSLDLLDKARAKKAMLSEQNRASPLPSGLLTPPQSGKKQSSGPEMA
# Chain of CDK3/Cyclin E1 (Q00526 whole entry): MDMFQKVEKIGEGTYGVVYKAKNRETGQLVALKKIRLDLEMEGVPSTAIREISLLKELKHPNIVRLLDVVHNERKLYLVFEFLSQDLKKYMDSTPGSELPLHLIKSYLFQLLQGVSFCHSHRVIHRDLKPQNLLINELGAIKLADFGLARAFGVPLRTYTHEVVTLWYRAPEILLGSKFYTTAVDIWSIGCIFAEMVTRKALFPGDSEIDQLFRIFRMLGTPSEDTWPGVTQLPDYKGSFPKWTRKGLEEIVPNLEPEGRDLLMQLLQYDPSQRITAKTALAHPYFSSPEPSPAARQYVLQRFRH
# Chain of CDK3/Cyclin E1 (P24864 whole entry partner): as the sequence (P24864 whole entry partner) above
# Chain of CDK8/Cyclin C (P49336 whole entry): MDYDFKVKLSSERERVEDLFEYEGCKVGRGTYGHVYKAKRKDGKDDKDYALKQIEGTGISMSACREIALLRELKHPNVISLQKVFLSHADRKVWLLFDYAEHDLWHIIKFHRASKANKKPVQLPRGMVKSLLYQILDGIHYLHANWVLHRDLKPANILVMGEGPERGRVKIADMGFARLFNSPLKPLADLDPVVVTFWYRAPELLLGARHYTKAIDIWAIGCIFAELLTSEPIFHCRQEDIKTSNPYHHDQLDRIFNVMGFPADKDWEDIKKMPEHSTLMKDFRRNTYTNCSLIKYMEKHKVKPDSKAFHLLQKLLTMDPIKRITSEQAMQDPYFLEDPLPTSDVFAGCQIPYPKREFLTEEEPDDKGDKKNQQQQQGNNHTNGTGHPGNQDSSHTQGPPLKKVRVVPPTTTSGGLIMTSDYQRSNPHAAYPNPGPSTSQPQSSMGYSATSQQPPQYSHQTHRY
# Chain of CDK8/Cyclin C (P24863 whole entry partner): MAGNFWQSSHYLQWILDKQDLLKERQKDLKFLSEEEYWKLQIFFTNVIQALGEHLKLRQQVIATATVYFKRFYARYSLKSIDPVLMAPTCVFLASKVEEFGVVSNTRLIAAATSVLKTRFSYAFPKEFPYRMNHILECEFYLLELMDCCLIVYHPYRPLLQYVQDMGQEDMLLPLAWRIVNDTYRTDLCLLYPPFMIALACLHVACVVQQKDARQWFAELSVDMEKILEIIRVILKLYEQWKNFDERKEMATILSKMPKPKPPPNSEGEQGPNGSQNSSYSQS
# Chain of CDK19/Cyclin C (Q9BWU1 whole entry): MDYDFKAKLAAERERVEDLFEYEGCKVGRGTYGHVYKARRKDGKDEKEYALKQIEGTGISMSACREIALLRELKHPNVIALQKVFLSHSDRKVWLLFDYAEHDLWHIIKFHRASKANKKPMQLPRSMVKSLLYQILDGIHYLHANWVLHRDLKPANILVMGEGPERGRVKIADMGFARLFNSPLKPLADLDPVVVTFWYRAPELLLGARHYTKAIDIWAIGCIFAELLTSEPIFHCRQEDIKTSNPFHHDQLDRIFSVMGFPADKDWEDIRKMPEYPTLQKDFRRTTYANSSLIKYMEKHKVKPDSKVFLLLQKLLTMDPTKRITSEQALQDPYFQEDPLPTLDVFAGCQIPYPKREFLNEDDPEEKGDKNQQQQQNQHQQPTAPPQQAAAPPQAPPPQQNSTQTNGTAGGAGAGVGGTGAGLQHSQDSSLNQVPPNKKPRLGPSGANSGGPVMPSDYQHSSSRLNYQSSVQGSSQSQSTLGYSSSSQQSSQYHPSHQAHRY
# Chain of CDK19/Cyclin C (P24863 whole entry partner): as the sequence (P24863 whole entry partner) above
# Chain of CDK7 (P50613 whole entry): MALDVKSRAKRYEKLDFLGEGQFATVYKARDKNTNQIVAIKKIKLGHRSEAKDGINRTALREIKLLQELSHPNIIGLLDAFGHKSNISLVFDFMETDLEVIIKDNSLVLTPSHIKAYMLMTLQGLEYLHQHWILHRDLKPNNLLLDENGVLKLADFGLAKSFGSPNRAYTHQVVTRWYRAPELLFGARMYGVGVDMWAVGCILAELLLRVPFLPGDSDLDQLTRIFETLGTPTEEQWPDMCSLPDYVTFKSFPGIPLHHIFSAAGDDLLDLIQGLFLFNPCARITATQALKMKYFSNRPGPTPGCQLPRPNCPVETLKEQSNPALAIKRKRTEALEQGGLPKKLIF
# Chain of CDK14/Cyclin Y (O94921 whole entry): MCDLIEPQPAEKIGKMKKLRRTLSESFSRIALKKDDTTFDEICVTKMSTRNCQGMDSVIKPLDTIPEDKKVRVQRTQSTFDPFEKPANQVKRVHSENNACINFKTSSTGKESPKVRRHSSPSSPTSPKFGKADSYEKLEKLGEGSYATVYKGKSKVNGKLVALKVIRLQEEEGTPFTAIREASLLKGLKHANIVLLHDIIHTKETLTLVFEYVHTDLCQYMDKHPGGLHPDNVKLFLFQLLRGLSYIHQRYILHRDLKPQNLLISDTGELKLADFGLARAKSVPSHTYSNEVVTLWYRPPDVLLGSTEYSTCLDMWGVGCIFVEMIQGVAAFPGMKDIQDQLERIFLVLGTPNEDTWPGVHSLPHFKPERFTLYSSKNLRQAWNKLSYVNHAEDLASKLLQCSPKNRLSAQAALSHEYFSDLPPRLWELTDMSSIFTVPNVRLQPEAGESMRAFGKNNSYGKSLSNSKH
# Chain of CDK14/Cyclin Y (Q8ND76 whole entry partner): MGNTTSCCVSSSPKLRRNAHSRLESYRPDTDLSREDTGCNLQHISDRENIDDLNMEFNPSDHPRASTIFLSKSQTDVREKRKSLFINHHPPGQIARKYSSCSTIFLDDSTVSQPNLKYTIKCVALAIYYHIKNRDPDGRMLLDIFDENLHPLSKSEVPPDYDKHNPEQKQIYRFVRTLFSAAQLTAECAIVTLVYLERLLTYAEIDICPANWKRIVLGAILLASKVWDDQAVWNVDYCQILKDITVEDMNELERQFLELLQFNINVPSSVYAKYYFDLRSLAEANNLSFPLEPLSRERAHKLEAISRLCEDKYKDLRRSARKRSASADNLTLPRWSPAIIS
# Chain of CDK5/CDK5R1 (Q00535 whole entry): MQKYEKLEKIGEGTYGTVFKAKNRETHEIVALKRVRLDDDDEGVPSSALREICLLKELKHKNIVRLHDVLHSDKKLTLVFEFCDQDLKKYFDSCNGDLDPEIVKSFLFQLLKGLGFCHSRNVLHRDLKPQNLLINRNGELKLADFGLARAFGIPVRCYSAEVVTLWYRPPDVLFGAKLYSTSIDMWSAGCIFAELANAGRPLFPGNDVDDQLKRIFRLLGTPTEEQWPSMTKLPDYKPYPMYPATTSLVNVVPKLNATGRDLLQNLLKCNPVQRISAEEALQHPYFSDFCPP
# Chain of CDK5/CDK5R1 (Q15078 whole entry partner): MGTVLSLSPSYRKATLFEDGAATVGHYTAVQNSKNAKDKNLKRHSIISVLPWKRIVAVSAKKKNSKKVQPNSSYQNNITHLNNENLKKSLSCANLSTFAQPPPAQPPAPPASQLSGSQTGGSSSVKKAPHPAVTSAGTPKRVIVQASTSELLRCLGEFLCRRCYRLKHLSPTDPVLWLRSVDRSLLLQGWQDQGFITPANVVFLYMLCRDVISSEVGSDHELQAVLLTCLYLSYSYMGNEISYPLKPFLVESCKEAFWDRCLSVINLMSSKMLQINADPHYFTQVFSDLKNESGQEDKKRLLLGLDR
compound,measurement,setting,value
CS(=O)(=O)N1CCC(NC(=O)c2[nH]ncc2NC(=O)c2c(Cl)cccc2Cl)CC1 [NVP-LCQ195],Inhibition at 10µM (%),CDK1/Cyclin E1; average,92.5%
same,IC50,CDK1/Cyclin E1; average (± SEM where n=3),83 nM
same,Inhibition at 10µM (%),CDK1/Cyclin E1; experiment 1,94.8%
same,IC50,CDK1/Cyclin E1; experiment 1,58 nM
same,Inhibition at 10µM (%),CDK1/Cyclin E1; experiment 2,90.2%
same,IC50,CDK1/Cyclin E1; experiment 2,108 nM
same,Inhibition at 10µM (%),CDK2/Cyclin E1,99.5% and 98.9%
same,Inhibition at 10µM (%),"CDK3/Cyclin E1; CDK3/E1, average",97.9%
same,IC50,"CDK3/Cyclin E1; CDK3/E1, average (± SEM where n=3), read-out: IC50",36 nM
same,Inhibition at 10µM (%),"CDK3/Cyclin E1; CDK3/E1, experiment 1",98.1%
same,IC50,"CDK3/Cyclin E1; CDK3/E1, experiment 1, read-out: IC50",36 nM
same,Inhibition at 10µM (%),"CDK3/Cyclin E1; CDK3/E1, experiment 2",97.6%
same,IC50,"CDK3/Cyclin E1; CDK3/E1, experiment 2, read-out: IC50",36 nM
same,IC50,"CDK3/Cyclin E1; live HEK-293, 2 h, mean ± S.E.M. (n=3) or mean (n=2), read-out: IC50 for CDK/cyclin complexes, CDK3/E1",36 nM
same,Inhibition at 10µM (%),CDK4/Cyclin D1; average,94.3%
same,IC50,CDK4/Cyclin D1; average (± SEM where n=3),15 nM
same,Inhibition at 10µM (%),CDK4/Cyclin D1; experiment 1,100.8%
same,IC50,CDK4/Cyclin D1; experiment 1,19 nM
same,Inhibition at 10µM (%),CDK4/Cyclin D1; experiment 2,87.9%
same,IC50,CDK4/Cyclin D1; experiment 2,11 nM
same,Inhibition at 10µM (%),CDK5/CDK5R1; average,93.1%
same,IC50,CDK5/CDK5R1; average (± SEM where n=3),31 nM
same,Inhibition at 10µM (%),CDK5/CDK5R1; experiment 1,90.4%
same,IC50,CDK5/CDK5R1; experiment 1,37 nM
same,Inhibition at 10µM (%),CDK5/CDK5R1; experiment 2,95.7%
same,IC50,CDK5/CDK5R1; experiment 2,25 nM
same,IC50,CDK7; average (± SEM where n=3),69 nM
same,Inhibition at 10µM (%),CDK7; experiment 1,86.7%
same,IC50,CDK7; experiment 1,68 nM
same,Inhibition at 10µM (%),CDK7; experiment 2,89.1%
same,IC50,CDK7; experiment 2,70 nM
same,Inhibition at 10µM (%),CDK8/Cyclin C; average,31.8%
same,Inhibition at 10µM (%),CDK8/Cyclin C; experiment 1,33.3%
same,Inhibition at 10µM (%),CDK8/Cyclin C; experiment 2,30.3%
same,Inhibition at 10µM (%),CDK11A/Cyclin L2; average,94.0%
same,IC50,CDK11A/Cyclin L2; average (± SEM where n=3),160 nM
same,Inhibition at 10µM (%),CDK11A/Cyclin L2; experiment 1,93.9%
same,IC50,CDK11A/Cyclin L2; experiment 1,225 nM
same,Inhibition at 10µM (%),CDK11A/Cyclin L2; experiment 2,94.1%
same,IC50,CDK11A/Cyclin L2; experiment 2,95 nM
same,Inhibition at 10µM (%),CDK11B/Cyclin L2; average,94.8%
same,IC50,CDK11B/Cyclin L2; average (± SEM where n=3),37 nM
same,Inhibition at 10µM (%),CDK11B/Cyclin L2; experiment 1,95.4%
same,IC50,CDK11B/Cyclin L2; experiment 1,35 nM
same,Inhibition at 10µM (%),CDK11B/Cyclin L2; experiment 2,94.2%
same,IC50,CDK11B/Cyclin L2; experiment 2,39 nM
same,Inhibition at 10µM (%),CDK12/Cyclin K; average,24.3%
same,Inhibition at 10µM (%),CDK12/Cyclin K; experiment 1,26.4%
same,Inhibition at 10µM (%),CDK12/Cyclin K; experiment 2,22.1%
same,Inhibition at 10µM (%),CDK13/Cyclin K; average,20.5%
same,Inhibition at 10µM (%),CDK13/Cyclin K; experiment 1,29.4%
same,Inhibition at 10µM (%),CDK13/Cyclin K; experiment 2,11.5%
same,Inhibition at 10µM (%),CDK14/Cyclin Y; average,90.1%
same,IC50,CDK14/Cyclin Y; average (± SEM where n=3),470 nM
same,Inhibition at 10µM (%),CDK14/Cyclin Y; experiment 1,90.7%
same,IC50,CDK14/Cyclin Y; experiment 1,607 nM
same,Inhibition at 10µM (%),CDK14/Cyclin Y; experiment 2,89.6%
same,IC50,CDK14/Cyclin Y; experiment 2,330 nM
same,Inhibition at 10µM (%),CDK15/Cyclin Y; average,92.4%
same,IC50,CDK15/Cyclin Y; average (± SEM where n=3),380 nM
same,Inhibition at 10µM (%),CDK15/Cyclin Y; experiment 1,93.0%
same,IC50,CDK15/Cyclin Y; experiment 1,531 nM
same,Inhibition at 10µM (%),CDK15/Cyclin Y; experiment 2,91.9%
same,IC50,CDK15/Cyclin Y; experiment 2,220 nM
same,IC50,CDK16/Cyclin Y; average (± SEM where n=3),13 nM
same,Inhibition at 10µM (%),CDK16/Cyclin Y; experiment 1,92.7%
same,IC50,CDK16/Cyclin Y; experiment 1,11 nM
same,Inhibition at 10µM (%),CDK16/Cyclin Y; experiment 2,92.6%
same,IC50,CDK16/Cyclin Y; experiment 2,14 nM
same,Inhibition at 10µM (%),CDK17/Cyclin Y; average,92.4%
same,IC50,CDK17/Cyclin Y; average (± SEM where n=3),11 nM
same,Inhibition at 10µM (%),CDK17/Cyclin Y; experiment 1,92.3%
same,IC50,CDK17/Cyclin Y; experiment 1,14 nM
same,Inhibition at 10µM (%),CDK17/Cyclin Y; experiment 2,92.4%
same,IC50,CDK17/Cyclin Y; experiment 2,7.7 nM
same,Inhibition at 10µM (%),CDK20/Cyclin H; experiment 1,26.0%
same,Inhibition at 10µM (%),CDK20/Cyclin H; experiment 2,16.0%
same,Inhibition at 10µM (%),CDK19/Cyclin C; average,37.8%
same,Inhibition at 10µM (%),CDK19/Cyclin C; experiment 1,38.7%
same,Inhibition at 10µM (%),CDK19/Cyclin C; experiment 2,37.0%
same,Inhibition at 10µM (%),CDK10/Cyclin L2; average,70.2%
same,Inhibition at 10µM (%),CDK10/Cyclin L2; experiment 1,74.4%
same,Inhibition at 10µM (%),CDK10/Cyclin L2; experiment 2,66.1%
